Assay results from ChEMBL document CHEMBL1201862, “PubChem BioAssay data set” (2004).
The source made the active and inactive calls. No stated cut-off is given here; in the data, actives have a measured EC50 and inactives only a lower limit.

Assays:
[1] = target: T1, Corticotropin-releasing factor receptor 2/Corticotropin-releasing factor-binding protein (Homo sapiens, UniProt P24387+Q13324); assay: activators of CRF receptor 2 with binding protein – uHTS hits, confirmation (AID 602473); assay type: functional; settings: read-out: EC50_Mean
T1 sequence (Q13324 whole entry): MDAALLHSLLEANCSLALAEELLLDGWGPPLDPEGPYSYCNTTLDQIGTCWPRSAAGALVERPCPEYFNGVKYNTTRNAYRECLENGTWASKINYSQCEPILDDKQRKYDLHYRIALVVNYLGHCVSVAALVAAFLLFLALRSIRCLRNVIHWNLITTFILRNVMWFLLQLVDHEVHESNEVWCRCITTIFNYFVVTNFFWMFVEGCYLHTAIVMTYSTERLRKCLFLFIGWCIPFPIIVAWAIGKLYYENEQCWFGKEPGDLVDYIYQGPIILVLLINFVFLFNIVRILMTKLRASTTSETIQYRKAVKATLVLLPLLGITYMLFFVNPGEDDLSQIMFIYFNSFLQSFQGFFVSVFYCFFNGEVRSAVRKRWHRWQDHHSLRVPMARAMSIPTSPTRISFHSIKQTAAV
T1 sequence (P24387 whole entry): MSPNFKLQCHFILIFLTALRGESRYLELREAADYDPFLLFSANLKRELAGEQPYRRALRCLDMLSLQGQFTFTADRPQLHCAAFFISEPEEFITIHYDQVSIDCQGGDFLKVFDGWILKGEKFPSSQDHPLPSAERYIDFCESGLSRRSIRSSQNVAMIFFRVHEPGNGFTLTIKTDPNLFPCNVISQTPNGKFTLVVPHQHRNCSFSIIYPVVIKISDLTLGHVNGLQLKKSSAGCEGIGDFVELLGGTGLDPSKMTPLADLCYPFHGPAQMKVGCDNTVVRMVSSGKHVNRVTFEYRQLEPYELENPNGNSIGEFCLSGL

[2] = Trypanosoma cruzi growth suppression in host cells – NIH3T3 host cells, beta-gal luminescence, confirmation (AID 2044); assay type: functional, cell-based;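 further: intracellular parasites grown in NIH/3T3 mouse fibroblasts as host cells; luminescent beta-galactosidase reporter signal from transgenic T. cruzi replicating inside host cells; inhibitors lower the luminescence signal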
[3] = NIH3T3 cell viability loss – ATP luminescence, mouse fibroblasts, counter-screen, dose response (AID 2010); assay type: functional, cell-based;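 further: cells exposed to compound for about 90 hours before reading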
[4] = test system: Streptococcus sp. 'group A'; assay: Streptococcus pyogenes SK(-)GAS viability under kanamycin – luminescence, BacTiterGlo, confirmation, counter-screen for streptokinase expression inhibitor project, dose response (AID 1900); assay type: functional, organism-based
Streptokinase A = target: T2, Streptokinase A (Streptococcus pyogenes serotype M1, UniProt P10520); assay: viability-normalized secreted streptokinase activity reduction – plasminogen activation absorbance, OD405, dose response (AID 1914); assay type: functional, Streptococcus pyogenes M1 GAS;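 further: secreted streptokinase activity via plasminogen activation per viability signal from cell pellet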
T2 sequence (P10520 whole entry): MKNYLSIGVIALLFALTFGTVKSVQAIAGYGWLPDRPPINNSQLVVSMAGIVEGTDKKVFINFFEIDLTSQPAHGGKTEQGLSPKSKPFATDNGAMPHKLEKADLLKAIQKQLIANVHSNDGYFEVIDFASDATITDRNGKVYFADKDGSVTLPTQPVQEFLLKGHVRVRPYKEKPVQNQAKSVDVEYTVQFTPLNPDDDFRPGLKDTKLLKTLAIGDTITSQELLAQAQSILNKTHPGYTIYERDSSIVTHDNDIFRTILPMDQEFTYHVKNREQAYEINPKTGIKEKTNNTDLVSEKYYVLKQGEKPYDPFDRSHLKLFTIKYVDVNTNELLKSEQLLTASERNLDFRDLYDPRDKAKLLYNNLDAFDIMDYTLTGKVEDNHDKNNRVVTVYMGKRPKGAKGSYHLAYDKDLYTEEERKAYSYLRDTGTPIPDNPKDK

Streptococcus = assay: GAS UMAA2166 growth inhibition – luminescence, BacTiterGlo, counter-screen for streptokinase expression inhibitor project, dose response (AID 1915); assay type: functional, organism-based;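 further: potency for reduction of bacterial viability or growth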
[5] = target: T3, Heat shock factor protein 1 (Mus musculus, UniProt P38532); assay: enhancement of HSF1-driven luciferase signal – cell-based, NIH3T3, luminescence, dose retest, confirmation (AID 435004); assay type: functional;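 further: stress induced by proteasome inhibitor MG132 added 30 min after compound; luciferase reporter driven by HSF1 response element in NIH3T3 cells; actives raise luminescence as potentiators of the MG132 stress response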
T3 sequence (P38532 whole entry): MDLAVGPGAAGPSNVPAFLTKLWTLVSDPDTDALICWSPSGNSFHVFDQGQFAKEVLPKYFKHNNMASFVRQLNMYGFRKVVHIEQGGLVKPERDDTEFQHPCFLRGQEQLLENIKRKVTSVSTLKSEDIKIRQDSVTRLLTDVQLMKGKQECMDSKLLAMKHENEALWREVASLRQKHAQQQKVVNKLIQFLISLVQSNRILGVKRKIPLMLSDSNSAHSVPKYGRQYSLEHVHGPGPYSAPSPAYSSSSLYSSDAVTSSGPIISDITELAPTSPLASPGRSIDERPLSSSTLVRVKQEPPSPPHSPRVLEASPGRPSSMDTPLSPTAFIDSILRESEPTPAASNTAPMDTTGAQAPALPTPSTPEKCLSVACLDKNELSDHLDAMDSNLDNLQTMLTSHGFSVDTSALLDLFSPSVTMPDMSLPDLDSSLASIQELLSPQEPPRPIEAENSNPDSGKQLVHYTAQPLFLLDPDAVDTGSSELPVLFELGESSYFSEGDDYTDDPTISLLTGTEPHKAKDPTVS

| SMILES | EC50 [4] | EC50 (Streptokinase A) | EC50 (Streptococcus) | also measured |
| --- | --- | --- | --- | --- |
| Cc1ccc(NS(=O)(=O)c2ccc(C(=O)N3CC(C)OC(C)C3)cc2)cc1 (stereo unspecified) | – | – | – | EC50 [1]: 8.95 µM (active) |
| COc1ccc(OC)c(N/C(C)=C/C(=O)c2ccccc2)c1 | – | – | – | EC50 [2]: 2.49 µM (active); EC50 [3]: > 60 µM (not active) |
| CCOC(=O)c1csc(N/N=C2\CCCc3ccccc32)n1 | 9.3 µM (active) | > 150 µM (not active) | 16 µM (active) | – |
| COc1ccc(C#Cc2ccc3c(=O)c4ccccc4n(C)c3c2)cc1 | 10.3 µM (active) | 110 µM (active) | 102 µM (active) | – |
| Cc1ccc(C(=O)NC(=S)N(C)C2CCCCC2)cc1Br | 2.54 µM (active) | – | 6.98 µM (active) | EC50 [2]: 2.07 µM (active); EC50 [3]: 8.13 µM (active) |
| Cc1cccc(CN2CCCC(C(=O)c3ccc4c5c(cccc35)CC4)C2)n1 (stereo unspecified) | 15 µM (active) | > 150 µM (not active) | > 150 µM (not active) | – |
| O=C1NC(=O)N(Cc2ccccc2)C(=O)/C1=C/NNC(=O)c1ccccc1 | 9.3 µM (active) | > 150 µM (not active) | 16.4 µM (active) | – |
| Cc1nc2c(C(=O)NCc3ccc4c(c3)OCO4)cnn2c(C)c1Cc1ccc(F)cc1Cl | 9.62 µM (active) | 42.9 µM (active) | > 150 µM (not active) | – |
| NC(=O)CSC1=N/C(=C\c2ccco2)C(=O)N1c1ccc(OC(F)F)cc1 | – | – | – | EC50 [5]: 13.7 µM (active) |
| FC(F)(F)c1cccc(CNC2c3ccccc3-c3ccccc32)c1 | 22.8 µM (active) | 19 µM (active) | > 150 µM (not active) | – |
| Cc1cccc(C)c1NC(=O)CN(C)CC(=O)Nc1sc2c(c1C(N)=O)CCC2 | > 150 µM (not active) | > 150 µM (not active) | > 150 µM (not active) | – |
| COc1ccc(C(=O)NC(=S)N2CCCCC2c2cccnc2)cc1OC (stereo unspecified) | – | – | – | EC50 [2]: 1.32 µM (active); EC50 [3]: > 60 µM (not active); EC50 [5]: > 260 µM (inactive) |
| FC(F)(F)c1cccc(Cn2nnnc2-c2cc(Cl)cc(Cl)c2)c1 | – | – | – | EC50 [5]: > 260 µM (inactive) |
| CC(C)n1cc(/C=N/NC(=O)COc2cccc3cccnc23)c2ccccc21 | – | – | – | EC50 [5]: 75.1 µM (active) |
| O=C(Nc1ccccc1C(=O)OCC(=O)c1c[nH]c2ccccc12)c1ccco1 | – | – | – | EC50 [5]: 55.3 µM (active) |
| COc1cc(/C=C(/C#N)C(=O)c2c(C)[nH]c3ccccc23)ccc1OCC#N | – | – | – | EC50 [5]: > 260 µM (inactive) |
| Fc1ccc(-c2cc(C(F)(F)C(F)F)[nH]n2)cc1 | – | – | – | EC50 [1]: 6.17 µM (active) |
| Cc1ccc(C(=N)NOC(=O)N2CCOCC2)cc1 | – | – | – | EC50 [2]: 1.95 µM (active); EC50 [3]: > 60 µM (not active) |
| CCOC(=O)CC(NC(=O)CCS(=O)(=O)c1ccc2c(c1)n(C)c(=O)c(=O)n2C)c1ccc(C)cc1 (stereo unspecified) | > 150 µM (not active) | > 150 µM (not active) | > 150 µM (not active) | – |
| CN(C)CCN(C(=O)c1ccc(S(=O)(=O)N(C)c2ccccc2)cc1)c1nc2cc3c(cc2s1)OCO3 | – | – | – | EC50 [2]: 0.145 µM (active); EC50 [3]: > 60 µM (not active) |
| Cc1cc(Cl)ccc1OCc1nc(-c2ccncc2)no1 | – | – | – | EC50 [2]: 2.43 µM (active); EC50 [3]: > 60 µM (inconclusive) |
| c1ccc(-c2nnc(-c3c[nH]c4ccccc34)nc2-c2ccccc2)cc1 | 14.7 µM (active) | 20.1 µM (active) | 68.7 µM (active) | – |
| Cc1cc(C)cc(C(=O)NC2C(=O)N3C(C(=O)O)=C(CSc4nnc(C)s4)CSC23)c1 (stereo unspecified) | 0.512 µM (active) | > 150 µM (not active) | 1.62 µM (active) | – |
| CCNC(=O)C(=O)NCc1ccncc1 | – | – | – | EC50 [5]: > 260 µM (inactive) |

| SMILES | EC50 [4] | EC50 (Streptokinase A) | EC50 (Streptococcus) | also measured |
| --- | --- | --- | --- | --- |
| COc1ccc2[nH]c(CN3CCN(CCC(C)C)C(CCO)C3)c(C)c2c1 (stereo unspecified) | – | – | – | EC50 [2]: 0.648 µM (active); EC50 [3]: > 60 µM (not active) |
| Cc1ccc(S(=O)(=O)NC(C(=O)O)c2ccccc2)cc1 (stereo unspecified) | – | – | – | EC50 [1]: > 53 µM (inactive) |
| COc1cccc(C2CC(c3cccs3)=NN2C(=O)CSc2nc(O)c3cnn(-c4ccc(F)cc4)c3n2)c1OC (stereo unspecified) | 1.63 µM (active) | – | 11.6 µM (active) | – |
| Cc1ccc2nc(NCCC(=O)O)nc(-c3ccccc3)c2c1 | – | – | – | EC50 [1]: 5.3 µM (active) |
| COc1ccc(-c2nc3scc(-c4ccccc4)n3n2)cc1 | – | – | – | EC50 [5]: > 260 µM (inactive) |
| CC(C)C(=O)N1CCC(n2nccc2NC(=O)CCOc2ccccc2)CC1 | – | – | – | EC50 [5]: > 260 µM (inactive) |
| OC1(C#Cc2c(-c3ccsc3)oc3ccc(N4CCOCC4)cc23)CCCCC1 | 6.92 µM (active) | 54.6 µM (inconclusive) | 15.3 µM (active) | – |
| C/C(=N\NC(=S)Nc1ccc(C)cc1)c1cccc(N)c1 | – | – | – | EC50 [1]: > 53 µM (inactive) |
| Cc1ccc2ccc(C(Nc3cccc(C(F)(F)F)c3)c3cccnc3)c(O)c2n1 (stereo unspecified) | 2.12 µM (active) | > 150 µM (not active) | 10.7 µM (active) | – |
| O=C(CSc1nnc(-c2cccs2)o1)N1CCCc2ccccc21 | – | – | – | EC50 [5]: > 260 µM (inactive) |
| CCN(CC(=O)NC(C)C)Cc1nc(O)c2c3c(sc2n1)CCC3 | – | – | – | EC50 [5]: > 260 µM (inactive) |
| COc1ccc(-c2c[n+](-c3ccccc3)c3n2CCS3)cc1 | – | – | – | EC50 [2]: 0.688 µM (active); EC50 [3]: > 60 µM (not active) |
| Cc1cnc(NC(=O)CSc2ncc(-c3ccccc3)n2Cc2ccco2)s1 | – | – | – | EC50 [1]: 5.51 µM (active) |
| COC(=O)c1c(C)oc2ccc(N(C(=O)Oc3ccccc3)S(=O)(=O)c3ccccc3)cc12 | – | – | – | EC50 [5]: > 260 µM (inactive) |
| Cc1cc(C)c(COc2ccc(/C=N/n3c(C)nnc3S)cc2)c(C)c1 | 4.01 µM (active) | 12 µM (active) | 12.2 µM (active) | – |
| CC12CC3(C)CC(C)(C1)CC(C(=O)NC1=NCCS1)(C2)C3 | 3.33 µM (active) | > 150 µM (not active) | > 150 µM (not active) | – |
| Cn1c(O)cc(=O)nc1SCC(=O)Nc1ccc(Cl)cc1 | 29.9 µM (active) | – | > 150 µM (not active) | – |
| C#CCN(N(C)c1ncc(C(F)(F)F)cc1Cl)S(=O)(=O)c1ccc2ccccc2c1 | – | – | – | EC50 [1]: > 53 µM (inactive) |
| Clc1ccc(C2=NCCN2)cc1 | – | – | – | EC50 [2]: 0.24 µM (active); EC50 [3]: > 60 µM (not active) |
| COCCn1c(-c2cc(OC)c(OC)c(OC)c2)nc2oc3cc(OC)ccc3c(=O)c2c1=O | > 150 µM (not active) | > 150 µM (not active) | > 150 µM (not active) | – |
| O=C(CSc1nc[nH]n1)c1cccc([N+](=O)[O-])c1 | – | – | – | EC50 [5]: > 260 µM (inactive) |
| c1ccc2c(c1)nc(Nc1ccc(N3CCCCC3)cc1)c1nncn12 | 6.13 µM (active) | > 150 µM (not active) | 91.3 µM (active) | – |
| CC(=O)Nc1ccc(NC(=O)CSc2nnc(NC(=O)c3ccc(Br)o3)s2)cc1 | 8.52 µM (active) | > 150 µM (not active) | 44 µM (active) | – |
| CCOP(=O)(C(NC(=O)c1ccccc1Cl)=C(Cl)Cl)c1ccccc1 (stereo unspecified) | – | – | – | EC50 [5]: > 260 µM (inactive) |
